Measurements taken from ChEMBL document CHEMBL6182898, “Design, synthesis and bioevaluation of novel hydrazide derivatives as enhancers of immunotherapy and DNA-damage response in antitumor therapy” (Eur J Med Chem, 2025).
The source made the active and inactive calls. The rule behind the calls is not given here.

Columns and labels:
B16-F10 [1] = assay: Induction of antitumor immunity in mouse B16-F10 cells implanted in male C57BL/6J mouse assessed as CD3+CD4+ T cell infiltration at 25 mg/kg, IG treated for 14 days consecutively in presence of NP-19 by flow cytometry (reference value: 7.4 %); format: functional; conditions: time 14 day
[2] = VRT (0 to t) in male Sprague-Dawley rat at 20 mg/kg, po measured for 0.083 to 12 hrs by LC-MS/MS analysis; format: ADME, organism-based; conditions: in vivo, time 0.083-12 hrs
[3] = VRT (0 to infinity) in male Sprague-Dawley rat at 20 mg/kg, po measured for 0.083 to 12 hrs by LC-MS/MS analysis; format: ADME, organism-based; conditions: in vivo, time 0.083-12 hrs
B16-F10 [4] = assay: Induction of apoptosis in mouse B16-F10 cells assessed as late-stage apoptosis at 2.5 uM incubated for 48 hrs by Annexin V-FITC/PI staining based flow cytometry relative to control; format: functional
B16-F10 [5] = assay: Induction of apoptosis in mouse B16-F10 cells assessed as late-stage apoptosis at 10 uM incubated for 48 hrs by Annexin V-FITC/PI staining based flow cytometry relative to control; format: functional
[6] = molecular target: T1, Histone deacetylase 3 (Mus musculus) (UniProt O88895); assay: In vivo inhibition of HDAC3 in mouse B16-F10 cells implanted in male C57BL/6J mouse assessed as increase in Ac-H3 level at 50 mg/kg, IG treated for 14 days consecutively by immunofluorescence based analysis; format: functional, organism-based; conditions: time 14.0 day
T1 sequence (whole entry): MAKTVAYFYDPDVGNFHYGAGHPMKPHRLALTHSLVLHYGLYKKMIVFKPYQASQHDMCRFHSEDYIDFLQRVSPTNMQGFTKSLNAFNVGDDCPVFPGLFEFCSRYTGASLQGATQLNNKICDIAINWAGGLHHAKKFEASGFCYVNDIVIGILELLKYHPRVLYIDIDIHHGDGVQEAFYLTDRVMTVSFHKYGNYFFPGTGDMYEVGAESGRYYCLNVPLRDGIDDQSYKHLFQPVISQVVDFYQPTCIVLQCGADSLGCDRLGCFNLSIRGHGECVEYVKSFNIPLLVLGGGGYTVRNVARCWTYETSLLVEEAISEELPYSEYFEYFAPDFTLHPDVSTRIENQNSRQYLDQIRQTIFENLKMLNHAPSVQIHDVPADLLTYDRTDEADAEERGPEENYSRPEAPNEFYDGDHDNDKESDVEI

[7] = AUC (0 to infinity) in male Sprague-Dawley rat at 20 mg/kg, po measured for 0.083 to 12 hrs by LC-MS/MS analysis; format: ADME, organism-based; conditions: in vivo, time 0.083-12 hrs
SK-OV-3 = assay: Antiproliferative activity against human SK-OV-3 cells incubated for 72 hrs by MTT assay; format: functional, cell-based; conditions: SK-OV-3, 72 h
[8] = MRT (0 to infinity) in male Sprague-Dawley rat at 20 mg/kg, po measured for 0.083 to 12 hrs by LC-MS/MS analysis; format: ADME, organism-based; conditions: in vivo, time 0.083-12 hrs
B16-F10 [9] = assay: Induction of antitumor immunity in mouse B16-F10 cells assessed as reduction in PD-L1 level incubated for 24 hrs by Western blot analysis; format: functional, cell-based; conditions: dose 2.5-10 µM
4T1 = assay: Induction of DNA damage in mouse 4T1 cells assessed as decrease in PARP1 level at 5 uM by immunofluorescence based analysis; format: functional, cell-based
[10] = molecular target: T2, Protein deacetylase HDAC6 (Homo sapiens, UniProt Q9UBN7); assay: Inhibition of HDAC6 (unknown origin)
T2 sequence (Q9UBN7 whole entry): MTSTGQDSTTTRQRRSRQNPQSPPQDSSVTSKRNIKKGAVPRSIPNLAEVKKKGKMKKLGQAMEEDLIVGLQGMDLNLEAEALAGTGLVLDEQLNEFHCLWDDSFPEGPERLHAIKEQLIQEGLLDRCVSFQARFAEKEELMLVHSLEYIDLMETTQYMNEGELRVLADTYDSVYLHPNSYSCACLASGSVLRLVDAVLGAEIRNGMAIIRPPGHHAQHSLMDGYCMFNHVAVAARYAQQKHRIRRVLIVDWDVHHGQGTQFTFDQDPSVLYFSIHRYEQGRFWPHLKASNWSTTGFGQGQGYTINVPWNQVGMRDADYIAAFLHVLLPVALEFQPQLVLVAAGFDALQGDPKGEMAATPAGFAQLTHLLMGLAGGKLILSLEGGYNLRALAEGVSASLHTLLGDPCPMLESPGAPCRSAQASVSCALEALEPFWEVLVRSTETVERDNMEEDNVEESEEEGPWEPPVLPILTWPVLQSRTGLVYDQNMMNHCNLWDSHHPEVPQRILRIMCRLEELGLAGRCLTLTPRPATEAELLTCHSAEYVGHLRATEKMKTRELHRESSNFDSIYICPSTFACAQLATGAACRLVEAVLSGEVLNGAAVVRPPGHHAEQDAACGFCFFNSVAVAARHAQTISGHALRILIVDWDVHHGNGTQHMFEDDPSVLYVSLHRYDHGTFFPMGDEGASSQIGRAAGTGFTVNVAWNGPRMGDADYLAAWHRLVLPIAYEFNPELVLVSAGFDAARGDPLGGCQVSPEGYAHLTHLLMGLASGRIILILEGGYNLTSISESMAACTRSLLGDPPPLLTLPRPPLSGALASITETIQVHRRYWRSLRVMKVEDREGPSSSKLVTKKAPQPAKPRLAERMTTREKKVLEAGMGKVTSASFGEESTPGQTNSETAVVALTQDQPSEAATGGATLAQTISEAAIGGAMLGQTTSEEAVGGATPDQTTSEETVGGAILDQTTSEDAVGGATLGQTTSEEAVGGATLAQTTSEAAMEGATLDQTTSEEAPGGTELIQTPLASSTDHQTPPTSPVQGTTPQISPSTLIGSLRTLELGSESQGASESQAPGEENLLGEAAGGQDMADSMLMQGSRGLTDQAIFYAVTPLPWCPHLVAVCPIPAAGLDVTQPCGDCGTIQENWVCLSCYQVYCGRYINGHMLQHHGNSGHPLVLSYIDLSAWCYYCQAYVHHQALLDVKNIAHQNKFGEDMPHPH

K562 = assay: Antiproliferative activity against human K562 cells incubated for 72 hrs by CCK8 assay; format: functional, cell-based; conditions: K562, 72 h
[11] = molecular target: T1, Histone deacetylase 3 (Mus musculus); assay: Inhibition of HDAC3 in mouse B16-F10 cells assessed as increase in Ac-H3K56 level at 2.5 to 10 uM incubated for 24 hrs by Western blot analysis; format: cell-based; conditions: dose 2.5-10 µM
B16-F10 [12] = assay: Induction of apoptosis in mouse B16-F10 cells assessed as late-stage apoptosis at 5 uM incubated for 48 hrs by Annexin V-FITC/PI staining based flow cytometry relative to control; format: functional
[13] = Toxicity in male C57BL/6J mouse implanted with mouse B16-F10 cells assessed as histopathological damage in heart at 50 mg/kg, IG treated for 14 days consecutively by H and E staining based analysis; format: organism-based; conditions: in vivo, po, 336 h, time 14 day
B16-F10 [14] = assay: Antiproliferative activity against mouse B16-F10 cells incubated for 72 hrs by MTT assay; format: functional, cell-based; conditions: B16-F10, 72 h

SMILES	Activity (B16-F10 [1]) [%]	VRT(t) [2] [h²]	VRT [3] [h²]	Activity (B16-F10 [4]) [%]	Activity (B16-F10 [5]) [%]	inhibition [6]	AUC(0-inf) [7] [ng·h/mL]	IC50 (SK-OV-3) [µM]	MRT inf [8] [h]	Activity (B16-F10 [9])	Activity (4T1)	IC50 [10] [µM]	IC50 (K562) [µM]	inhibition [11]	Activity (B16-F10 [12]) [%]	Activity [13]	IC50 (B16-F10 [14]) [µM]
CCCNNC(=O)CCCCCCNC(=O)c1cnc(-c2ccc(NC(=O)OC(C)(C)C)cc2)s1	28	6.38	14.7	20.6	51.5	Active	32.1	5.76	3.13	Dose-dependent-effect; Activity Was Similar To Ms-275	Active	> 10	1.06	Active	43.5	Non-toxic	5.22
CCCNNC(=O)c1ccc(NC(=O)c2cnc(-c3ccc(OC(F)(F)F)cc3)s2)cc1	–	–	–	24	55.3	–	–	8.37	–	Dose-dependent-effect; Activity Was Similar To Ms-275	–	> 10	4.57	Active	45.8	–	6.07
